Reference: patent US20260137701A1, “CHOLESTENOIC ACID (CA) AND A SULFATED DERIVATIVE THEREOF, 3[BETA]-SULFATE-5-CHOLESTENOIC ACID (CA3S), AS ENDOGENOUS EPIGENETIC REGULATORS” (priority 2022, published 2026)

Test system: HepG-2 cells
Experiment: Whole genome bisulfite sequencing (WGBS), differentially methylated regions
Assay type: cell-based, human
Settings: for DMR (Methylation %) UQCRC1 promoter region / DMR (Methylation %) VDAC2 promoter region / number of DMRs in promoter region, hyper-methylated / number of DMRs in promoter region, hypo-methylated / number of DMRs in promoter region, total / DMR (Methylation %) ADRA1A promoter region / DMR (Methylation %) ADRA1B promoter region / DMR (Methylation %) ADRA1 promoter region / DMR (Methylation %) BCL6 promoter region / DMR (Methylation %) CACNA1D promoter region / DMR (Methylation %) CALML3 promoter region / DMR (Methylation %) CALML4 promoter region / DMR (Methylation %) CAMKK2 promoter region / DMR (Methylation %) COX7B promoter region / DMR (Methylation %) COX8A promoter region / DMR (Methylation %) CPT1A promoter region / DMR (Methylation %) CPT1C promoter region / DMR (Methylation %) CREB3L4 promoter region / DMR (Methylation %) CYP1A1 promoter region / DMR (Methylation %) ESR2 promoter region / DMR (Methylation %) FBP1 promoter region / DMR (Methylation %) FGF1 promoter region / DMR (Methylation %) FGF8 promoter region / DMR (Methylation %) FGFR2 promoter region / DMR (Methylation %) LDHA promoter region / DMR (Methylation %) LDHAL6A promoter region / DMR (Methylation %) LDHC promoter region / DMR (Methylation %) LEP promoter region / DMR (Methylation %) MIR29A promoter region / DMR (Methylation %) MIRLET7B promoter region / DMR (Methylation %) MTOR promoter region / DMR (Methylation %) NTRK3 promoter region / DMR (Methylation %) PDHA2 promoter region / DMR (Methylation %) PDHB promoter region / DMR (Methylation %) PHKG1 promoter region / DMR (Methylation %) PPARG promoter region / DMR (Methylation %) SDHA promoter region / DMR (Methylation %) SDHB promoter region / DMR (Methylation %) SPHK2 promoter region: 20 μM CA
Procedure: After culturing HepG-2 cells in DMEM medium with HG for 72 hours followed by treating with 20 μM CA for 0, 3, 6, 12, and 24 hours, genomic DNA from 5×10^7 cells were extracted using QIAamp® DNA Mini Kit (QIAGEN, Hilden, Germany). Each sample, 6 μg, was sent to CD Genomics Co., Ltd (New York, USA) for analysis of WGBS. Total RNA was isolated using the Promega SV total RNA isolation system (Madison, WI, USA) with DNase treatment. Each sample, 2 μg, were sent to CD Genomics Co., Ltd (New York, USA) for analysis of RNA sequencing. The same samples, 2 μg, was used for the first-strand cDNA synthesis as recommended by the manufacturer (Invitrogen, Carlsbad, CA). RT-qPCR was performed using SYBR Green as the indicator on ABI 7500 Fast Real-Time PCR System (Applied Biosystems, Foster City, CA). Amplifications of j-actin or GAPDH were used as internal controls. Relative messenger RNA (mRNA) expression was quantified with the comparative cycle threshold (Ct) method using a sutiable primer set and was expressed as 2-ΔΔCt as described previously.
Each sample, 1 μg of genomic DNA was fragmented by sonication to a mean size of approximately 200-400 bp, and subsequently used for WGBS library construction using Acegen Bisulfite-Seq Library Prep Kit (Acegen) following the manufacturer's instructions. The methylated adapter-ligated DNAs were purified using 0.8×Agencourt AMPure™ XP magnetic beads and subjected to bisulfite conversion by ZYMO EZ DNA Methylation-Gold™ Kit (Zymo Research Corporation, CA, USA). The converted DNAs were then amplified using 25 μl KAPA HiFi™ HotStart Uracil+ ReadyMix (2×) and 8-bp index primers with a final concentration of 1 μM each. The constructed WGBS libraries were then analyzed by Agilent 2100 Bioanalyzer and quantified by a Qubit fluorometer with Quant-iT™ dsDNA HS Assay Kit (Invitrogen), and finally sequenced on Illumina® Hiseq X™ Ten sequencer. After the preparation of the library, Qubit 2.0 and Agilent 2100 were used respectively to detect the concentration of the library and the Insert Size, and the effective concentration (>2 nM) of the library was quantitatively determined by Q-PCR to ensure the library quality.
Samples were sequenced using the Illumina® HiSeq sequencing platform. Raw data generated on the sequencing platform contained a small percentage of low-quality data, which was then filtered to get high-quality data. Bsmap software was used to perform alignments of bisulfite-treated reads to a reference genome (GRCh37). Metilene software was used to identify differentially methylated regions (DMRs). DAVID software (website located at david.ncifcrf.gov/) was used to test the statistical enrichment of DMR related genes in the Gene Ontology (GO) and Kyoto Encyclopedia of Genes and Genomes (KEGG) pathways.

CC(CCC[C@@H](C)[C@H]1CC[C@H]2[C@@H]3CC=C4C[C@@H](O)CC[C@]4(C)[C@H]3CC[C@]12C)C(=O)O (stereo partly drawn) [CA, 3β-hydroxy-5-cholestenoic acid]
DMR (Methylation %) UQCRC1 promoter region (6 h): −56.12%
DMR (Methylation %) VDAC2 promoter region (6 h): −40.06%
number of DMRs in promoter region, hyper-methylated (6 hours): 1,749
number of DMRs in promoter region, hypo-methylated (6 hours): 22,621
number of DMRs in promoter region, total (6 hours): 24,370
DMR (Methylation %) ADRA1A promoter region (12 h): −30.57%
DMR (Methylation %) ADRA1B promoter region (12 h): 0%
DMR (Methylation %) ADRA1 promoter region (12 h): −30.57%
DMR (Methylation %) BCL6 promoter region (12 h): −33.25%
DMR (Methylation %) CACNA1D promoter region (12 h): 0%
DMR (Methylation %) CALML3 promoter region (12 h): −30.32%
DMR (Methylation %) CALML4 promoter region (12 h): −21.6%
DMR (Methylation %) CAMKK2 promoter region (12 h): −23.88%
DMR (Methylation %) COX7B promoter region (12 h): 0%
DMR (Methylation %) COX8A promoter region (12 h): 0%
DMR (Methylation %) CPT1A promoter region (12 h): −16.93%
DMR (Methylation %) CPT1C promoter region (12 h): −24.72%
DMR (Methylation %) CREB3L4 promoter region (12 h): 0%
DMR (Methylation %) CYP1A1 promoter region (12 h): 0%
DMR (Methylation %) ESR2 promoter region (12 h): −28.97%
DMR (Methylation %) FBP1 promoter region (12 h): 0%
DMR (Methylation %) FGF1 promoter region (12 h): −48.58%
DMR (Methylation %) FGF8 promoter region (12 h): −37.87%
DMR (Methylation %) FGFR2 promoter region (12 h): 0%
DMR (Methylation %) LDHA promoter region (12 h): −36.43%
DMR (Methylation %) LDHAL6A promoter region (12 h): 0%
DMR (Methylation %) LDHC promoter region (12 h): 0%
DMR (Methylation %) LEP promoter region (12 h): −62.7%
DMR (Methylation %) MIR29A promoter region (12 h): −22.09%
DMR (Methylation %) MIRLET7B promoter region (12 h): 0%
DMR (Methylation %) MTOR promoter region (12 h): −27.13%
DMR (Methylation %) NTRK3 promoter region (12 h): −53.95%
DMR (Methylation %) PDHA2 promoter region (12 h): −28.93%
DMR (Methylation %) PDHB promoter region (12 h): 0%
DMR (Methylation %) PHKG1 promoter region (12 h): −24.54%
DMR (Methylation %) PPARG promoter region (12 h): −27.41%
DMR (Methylation %) SDHA promoter region (12 h): 0%
DMR (Methylation %) SDHB promoter region (12 h): −38.35%
DMR (Methylation %) SPHK2 promoter region (12 h): −18.02%
DMR (Methylation %) UQCRC1 promoter region (12 h): −23.36%
DMR (Methylation %) VDAC2 promoter region (12 h): −19.71%
number of DMRs in promoter region, hyper-methylated (12 hours): 1,891
number of DMRs in promoter region, hypo-methylated (12 hours): 23,813
number of DMRs in promoter region, total (12 hours): 25,704
DMR (Methylation %) ADRA1A promoter region (24 h): −30.81%
DMR (Methylation %) ADRA1B promoter region (24 h): 0%
DMR (Methylation %) ADRA1 promoter region (24 h): −30.81%
DMR (Methylation %) BCL6 promoter region (24 h): −31.52%
DMR (Methylation %) CACNA1D promoter region (24 h): 0%
DMR (Methylation %) CALML3 promoter region (24 h): −26.91%
DMR (Methylation %) CALML4 promoter region (24 h): −21%
DMR (Methylation %) CAMKK2 promoter region (24 h): 0%
DMR (Methylation %) COX7B promoter region (24 h): 0%
DMR (Methylation %) COX8A promoter region (24 h): −34.15%
DMR (Methylation %) CPT1A promoter region (24 h): −29.33%
DMR (Methylation %) CPT1C promoter region (24 h): −24.09%
DMR (Methylation %) CREB3L4 promoter region (24 h): −35.93%
DMR (Methylation %) CYP1A1 promoter region (24 h): −27.04%
DMR (Methylation %) ESR2 promoter region (24 h): −24.69%
DMR (Methylation %) FBP1 promoter region (24 h): −28.62%
DMR (Methylation %) FGF1 promoter region (24 h): 0%
DMR (Methylation %) FGF8 promoter region (24 h): 0%
DMR (Methylation %) FGFR2 promoter region (24 h): −24.29%
DMR (Methylation %) LDHA promoter region (24 h): −32.94%
DMR (Methylation %) LDHAL6A promoter region (24 h): −22.36%
DMR (Methylation %) LDHC promoter region (24 h): −31.77%
DMR (Methylation %) LEP promoter region (24 h): 0%
DMR (Methylation %) MIR29A promoter region (24 h): −26.93%
DMR (Methylation %) MIRLET7B promoter region (24 h): −24.75%
DMR (Methylation %) MTOR promoter region (24 h): 0%
DMR (Methylation %) NTRK3 promoter region (24 h): −53.82%
DMR (Methylation %) PDHA2 promoter region (24 h): −38.56%
DMR (Methylation %) PDHB promoter region (24 h): −26.74%
DMR (Methylation %) PHKG1 promoter region (24 h): −33.52%
DMR (Methylation %) PPARG promoter region (24 h): −27.57%
DMR (Methylation %) SDHA promoter region (24 h): −23.5%
DMR (Methylation %) SDHB promoter region (24 h): 0%
DMR (Methylation %) SPHK2 promoter region (24 h): −45.29%
DMR (Methylation %) UQCRC1 promoter region (24 h): −26.32%
DMR (Methylation %) VDAC2 promoter region (24 h): −26.13%
number of DMRs in promoter region, hyper-methylated (24 hours): 1,594
number of DMRs in promoter region, hypo-methylated (24 hours): 26,762
number of DMRs in promoter region, total (24 hours): 28,356
number of genes with demethylation of 5 mCpG to CpG in promoter regions (HepG-2 cells): over 7,000
